The values that follow come from patent publication US20040048900A1, “Nicotine and/or nicotine agonists for the treatment of general anesthetic effects and side effects” (priority 2002, published 2004).

The term IC50 denotes the concentration that gives 50% inhibition.

Data set [1] concerns norepinephrine levels in brain and spinal cord. Nature of the data set: HPLC of norepinephrine, 5-HT, dopamine and metabolites after DSP-4. In kind it is in vivo, mice. The note with it: DSP4-treated n = 2. The source says: (§1) How could nicotinic inhibition cause hyperalgesia? Nicotine is thought to exert its analgesic action by increasing the release of norepinephrine, serotonin and acetylcholine onto the relay neurons in the dorsal horn of the spinal cord (Rao, 1996; and Reuter, 2000). Isoflurane might reduce pain threshold by inhibiting nicotinic acetylcholine receptors tonically active in potentiating the release of norepinephrine, serotonin and/or acetylcholine. To test the role of the α-adrenergic system, mice were treated systemically with the adrenergic neurotoxin DSP-4 to deplete norepinephrine levels (Jonsson, 1981). The DSP-4 mice 14 days after treatment were tested for HPWL in the presence of isoflurane alone or isoflurane with nicotine pretreatment (see methods).
The HPLC procedures were conducted according to the methods described by Underwood et al. (Underwood, 1999).

The subject of data set [2] is mice.
From the text: Nicotinic acetylcholine receptors are involved in the mechanism of isoflurane hyperalgesia, and nicotinic inhibition could be the initiating event.
as §1
To test the role of muscarinic receptors for acetylcholine, mice were treated with the nonspecific muscarinic antagonist, atropine. A cholinergic neurotoxin could not be used for these studies, because removing all cholinergic neurons would have nicotinic in addition to muscarinic effects. Instead, postsynaptic muscarinic blockade was used. ACh causes analgesia, at least in part due to muscarinic stimulation (Chiari, 1999; Smith, 1989; and Lavand'homme, 1999). […] High concentrations of atropine can block nicotinic acetylcholine receptors as well (Zwart, 1997).

Data set [3] deals with mice. Nature of the data set: Nicotine-induced prostration, duration of mecamylamine blockade.
Protocol: (§2) The duration of mecamylamine's action was tested with two control experiments. First, 5 mice were injected with mecamylamine 5 mg/kg IP or saline. These mice were then tested at 1-hour intervals with nicotine 1 mg/kg IP. […] Mecamylamine plasma concentration was measured in 5 female mice, 1 hour after I.P. injection using a combination of Gas Chromatography and Mass Spectroscopy described by Jacob et al. (Jacob, 2000).
For data set [4] the following is noted: nicotine 1 mg/kg, Thompson, 1982, cited from earlier work.
Data set [5] relates to ^3H-norepinephrine release from female mouse lumbar spinal cord slice. Nature of the data set: 3H-norepinephrine release from superfused spinal cord slice. The settings on record: 1 mM nicotine in perfusion buffer, p<0.02.
From the text: Spinal Cord Slice Preparation: The spinal cord was dissected from the mouse. Under CO2 narcosis the mouse was decapitated. The spinal column was removed and placed into cold dissection solution where the spinal cord was removed with a dissection microscope. The lumbar section of the cord was isolated and imbedded in a 3% low melting point agar (Fisher Scientific) block made in dissection solution. Transverse 400 micrometer slices were made using a Vibratone VT1000S slicing apparatus (Leica, Whetzlar, Germany). Slicing was performed in ice cold Krebs solution bubbled with 5%CO2/95%O2.
The cord slices were incubated in a solution of 1 ml of Krebs solution and 10 ul of 1-[7,8-^3H] noradrenaline in a closed environment surrounded by Krebs solution bubbled with CO2/O2 for 30 minutes. The slices were transferred into a superfusion and stimulation chamber (Warner Instruments Inc.,) where Krebs solution was allowed to perfuse over them for 30 minutes at a rate of 0.5 ml/min. The superfusion chamber thermostatically temperature controlled at 37° C. The solutions were pumped to the chamber at a constant rate of 0.5 ml/min using a Kwik-Pump 290 (Long). Following a 30 minute period for equilibration, collections were taken every 1-2.5 minutes. Ecolite scintillation fluid (15 ml) was then added to each collection vial. The samples were analyzed for radioactivity (CPM) using a Packard TRI CARB 2100 TR scintillation counter (Meriden, Conn.).
Dissection Krebs Solution (mM) NaCl 125, KCl 2.5, NaHCO3 26, NaH2PO4-H2O1.25, MgCl2 6,CaCl2 1.5, glucose 2.5. Perfusion Krebs Solution (mM) NaCl 125, KCl 2.5, NaHCO3 26, NaH2PO4—H2O 1.25, MgCl2 1,CaCl2 2, glucose 2.5.
After incubation with ^3H-norepinephrine, the cord slices were perfused with buffer for 30 minutes at 0.5 ml/minute. After equilibration, samples containing released ^3H-norepinephrine were collected at 2.5 minute intervals. After determination of baseline release, the slices were stimulated with 1 mM nicotine in the perfusion buffer.
For data set [6], the target named is T1, human α4β2 nAChRs expressed in Xenopus oocytes (Homo sapiens, UniProt P17787+P43681).
T1 construct: expressed in transfected cells; host or cells: Xenopus laevis oocytes injected with cRNA (1:1 α4 to β2)
Nature of the data set: Two-microelectrode voltage clamp of ACh-activated currents in Xenopus oocytes. In kind it is cell-based. As to the method: The human α4 and β2 type nAChRs were in a pSP64 expression vector. Standard techniques were used to linearize the vectors and use them as templates to make cRNA using SP6 as the polymerase. The human nicotinic clones were a gift from Dr. Jon Lindstrom, Ph.D. (Department of Neuroscience, University of Pennsylvania, Philadelphia, Pa.).
Xenopus laevis oocytes were removed from the females and defolliculated with collagenase. After the oocytes rested for 24 hours in L-15 oocyte medium, about 10 ng of a 1:1 ratio of α4 to β2 cRNA were injected into individual oocytes. A manual injector was used for this process (Nanoject; Drummond Scientific, Broomall, Pa.). The oocytes were incubated for 2-5 days in ND-96 medium (NaCl 96 mM, KCl 2 mM, MgCl2 1 mM, CaCl2 H2O 1.8 mM, HEPES 5 mM, Na-pyruvate 2.5 mM, theophylline 0.5 mM, and 10mg/L of gentamicin, adjusted to pH 7.5).
Whole oocytes were used to record currents using a Gene-Clamp 500 two-microelectrode voltage-clamp amplifier with an active ground (Axon Instruments, Inc., Foster, Cailf.). The recording electrodes were pulled from glass capillary tubing (Drummond, Broomall, Pa.) to obtain a resistance between 1 and 5 MΩ and filled with 3M KCl. Ba^2 Ringer's solution was used as the extracellular solution in order to avoid current amplification by calcium activated chloride currents (115 mM NaCl, 2.5 mM KCl, 1.8 mM BaCl2, 10 mM HEPES, 1 μM atropine, pH 7.4). Atropine was included to avoid activation of intrinsic muscarinic receptors. Experiments were performed at room temperature. Isoflurane was prepared from a saturated solution by serial dilution. Concentrations were verified by gas chromatography.
Oocytes were tested at a membrane potential of −60 mV. Bolus application of the agonist +/− indicated antagonist(s) was applied at a rate of 4 ml/min for a 2 second application.
Antagonists were pre-applied for 2 minutes prior to activation. Concentration response curves were made from the percent change in peak current from ACh activation in the presence of antagonist(s), compared to ACh alone. As the ACh concentration at central neuronal nAChRs is unknown, 1 mM ACh (saturating) was used to detect inhibition by isoflurane and mecamylamine experiments with mecamylamine. ACh 2 μM was used to detect potentiation by nicotine. Currents were measured in 5-8 cells for each data point. Clampex 7 (Axon instruments, Foster City, Calif.) was used for data acquisition.
Microcal Origins 5.0 (Microcal, Northampton, Mass.) was used for statistical calculations and graphical presentation. The in vitro data were fit to a modified Hill equation, y=100/(1+(x/IC50)^n), where IC50 is the concentration of drug at which of 50% of the response is inhibited and n is the Hill coefficient.

Data set [7] relates to women having pelvic surgery. As to the method:
In a double blind, randomized trial of women having pelvic surgery with an isoflurane anesthetic, either nicotine (nasal spray, 3 mg) or saline placebo was administered just prior to emergence from anesthesia. Postoperative pain was assessed using the visual analog scale (VAS). In the VAS, patients are asked how much pain they have on a scale from 0-10 where 0 is no pain and 10 is the worst pain imaginable. All patients had access to essentially unlimited morphine in a PCA pump as is routine after this type of surgery.

The next data set has as its system non-smoking volunteers. The note with it: cited from earlier work.
Another data set in a line: in vivo. The note with it: female, mouse, plasma, 5 mg/kg.
The test system of a further data set is NMDA. The settings on record: O'Dell, 1988; Papke, 2001; cited from earlier work.
For a further data set, the system named is seizures induced by NMDA. The settings on record: McDonough, 1995; cited from earlier work.
The conditions of data set [8]: Qian, 1993; Badio, 1994; cited from earlier work.
[9] abbreviates: 3 mg intranasally, Fishbein, 2000.
The mark [10] stands for this setting: 3 mg intranasally, Guthrie, 1999.

T1 sequence (P43681 29-627 limits assumed): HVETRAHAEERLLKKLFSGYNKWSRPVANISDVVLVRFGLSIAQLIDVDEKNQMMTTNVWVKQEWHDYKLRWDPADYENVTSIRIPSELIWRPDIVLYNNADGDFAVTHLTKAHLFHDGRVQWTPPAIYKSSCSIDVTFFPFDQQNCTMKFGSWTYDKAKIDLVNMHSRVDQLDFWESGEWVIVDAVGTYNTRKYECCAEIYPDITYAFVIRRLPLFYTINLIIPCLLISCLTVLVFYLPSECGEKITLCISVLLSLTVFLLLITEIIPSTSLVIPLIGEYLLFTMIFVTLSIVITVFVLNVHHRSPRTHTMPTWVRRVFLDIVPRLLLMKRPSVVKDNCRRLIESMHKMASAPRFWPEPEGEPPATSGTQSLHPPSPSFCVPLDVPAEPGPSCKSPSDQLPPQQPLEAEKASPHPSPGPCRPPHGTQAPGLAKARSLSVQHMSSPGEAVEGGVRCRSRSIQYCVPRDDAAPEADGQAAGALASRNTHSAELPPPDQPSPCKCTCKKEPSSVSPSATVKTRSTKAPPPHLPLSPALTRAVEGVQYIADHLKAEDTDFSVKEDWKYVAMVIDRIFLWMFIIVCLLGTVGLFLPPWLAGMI
T1 sequence (P17787 26-502): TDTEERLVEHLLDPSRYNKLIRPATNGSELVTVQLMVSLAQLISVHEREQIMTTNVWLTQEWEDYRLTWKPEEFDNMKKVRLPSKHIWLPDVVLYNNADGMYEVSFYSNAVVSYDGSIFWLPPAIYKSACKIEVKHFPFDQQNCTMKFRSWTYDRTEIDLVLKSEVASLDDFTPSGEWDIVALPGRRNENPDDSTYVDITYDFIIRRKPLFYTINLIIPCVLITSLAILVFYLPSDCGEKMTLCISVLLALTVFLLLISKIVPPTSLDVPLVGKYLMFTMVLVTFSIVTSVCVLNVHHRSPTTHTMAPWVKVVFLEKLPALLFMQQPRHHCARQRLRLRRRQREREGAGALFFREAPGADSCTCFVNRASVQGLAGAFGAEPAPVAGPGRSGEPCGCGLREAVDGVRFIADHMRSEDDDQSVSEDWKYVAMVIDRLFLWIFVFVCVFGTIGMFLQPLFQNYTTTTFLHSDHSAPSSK
Protocol for in vivo: as §2

As for `CCN(CCCl)Cc1ccccc1Br` [DSP4], the “MHPG concentration (HPLC)” value in data set [1] (Brain Stem, control 253.3) came to 104.9; in data set [1] (Medulla, control 194.5), 139.3; in data set [1] (Pons, control 235.9), 122.1; in data set [1] (Spinal cord, control 82.5) it was 62.6. The “HVA concentration (HPLC)” value turned out to be 275.2 in data set [1] (Brain Stem, control 300.1); 88.0 in data set [1] (Medulla, control 118.5); 181.6 in data set [1] (Pons, control 100.7); 23.0 in data set [1] (Spinal cord, control 38.2). Also, the “DA concentration (HPLC)” value in [1] (Brain Stem, control 599.2) came out at 621.0; in [1] (Medulla, control 168.7) it was 138.2; in [1] (Pons, control 128.1), 379.6; in data set [1] (Spinal cord, control 182.6), 210.9. Further, the “DOPAC concentration (HPLC)” value in data set [1] (Brain Stem, control 662.4) stood at 494.6; in [1] (Medulla, control 248.3), 196.0; in [1] (Pons, control 341.8), 345.3; in [1] (Spinal cord, control 136.4), 118.8. Also, the “NE concentration (HPLC)” value came to 811.2 in data set [1] (Brain Stem, control 1044.1); 812.0 in [1] (Medulla, control 1408.8); 811.6 in data set [1] (Pons, control 1345.9); 587.6 in [1] (Spinal cord, control 798.8). Further, the “5-HT concentration (HPLC)” value in data set [1] (Brain Stem, control 2336.9) came to 2140.3; in data set [1] (Medulla, control 1152.5), 1054.9; in [1] (Pons, control 996.8), 1597.6; in data set [1] (Spinal cord, control 1122.1), 808.6. For the same compound, the “5HIAA concentration (HPLC)” value was 2746.9 in data set [1] (Brain Stem, control 2972.1); 1302.6 in [1] (Medulla, control 1184.1); 2024.7 in data set [1] (Pons, control 1334.6); 1111.3 in [1] (Spinal cord, control 1057.9).

In the case of `CN1CCC[C@H]1c1cccnc1` [nicotine, (s)-(−)-nicotine], in the data set with mice [2] (mouse, in vivo), the “analgesia by ICV nicotine” value was “caused significant analgesia both in the presence and absence of isoflurane”; the “effect of ICV nicotine on isoflurane hyperalgesia” value is “did not prevent hyperalgesia with isoflurane”. For the same compound, the “protection against isoflurane hyperalgesia in presence of atropine” value in the data set with mice [2] (nicotine 1 mg/kg, atropine 5 mg/kg) is on record as “remained protective against the hyperalgesia”. The “effect on HPWL in DSP-4 treated mice” value in the data set on mice [2] (nicotine pretreatment, baseline or isoflurane) was “without effect”. Besides, in the data set on mice [3] (nicotine 1 mg/kg IP, mice not pretreated with mecamylamine), the “time until mice lay prone” value was not above 5 min. Besides, in data set [4], the “detectability by HPLC at 40 minutes” value was “undetectable by HPLC at 40 minutes”. The peak concentration entry in data set [4] (at 5 minutes) is recorded as “approximately 2 μM”. The “release of ^3H-norepinephrine” value in data set [5] is “caused an increase in the release of ^3H-norepinephrine”. Further, in [6] (ACh 2 μM nicotine 2 μM, given concentration of isoflurane), the “current relative to ACh 2 μM alone in presence of isoflurane” value was “always larger”. In addition, in data set [6] (nicotine 2 μM added to ACh 2 μM), the “current relative to ACh alone” value is reported as “produces a larger current than ACh alone”. Besides, the ill effects result in [7] (nicotine nasal spray 3 mg) is reported as “no severe ill effects”. Moreover, in data set [7] (nicotine nasal spray 3 mg prior to emergence vs saline placebo), the “postoperative pain, VAS scores” value is given as “significantly lower VAS scores”. Further, the heart rate entry in data set [7] (nicotine nasal spray 3 mg vs placebo) is reported as “higher heart rates”. Further, in data set [7] (nicotine nasal spray 3 mg, placebo 12 mg), the “morphine used in the first hour (PCA pump)” value is 4 mg. The blood pressures entry in [7] (with or without nicotine) was “not different”. In the data set on non-smoking volunteers (setting [9]), the “average increase in systolic blood pressure” value is recorded as 7 mM of mercury and the “diastolic blood pressure or heart rate” value is “no change”. In addition, in the data set on non-smoking volunteers (setting [10]), the arterial peak concentration was 100 µM and the “steady state venous concentration” value was 30 µM. Also, in the data set on non-smoking volunteers (intranasal nicotine), the “time of peak effect” value is “peak effect in five minutes” and the “time until effect is dissipated” value was “dissipated in about one hour”.

For `CNC1(C)C2CCC(C2)C1(C)C` (stereo not drawn) [mecamylamine], in the data set with mice [3] (mecamylamine 5 mg/kg IP, tested at 1-hour intervals), the “duration of blockade of prostration from nicotine 1 mg/kg IP” value was “up to 4 hours”. For the same compound, the values for the concentration at 1 h in “in vivo” (intraperitoneal) and in the data set “in vivo” (ip) were 200 ± 70 nM and 203 nM, respectively. Moreover, in the data set on NMDA, the “concentration range with NMDA antagonist properties” value is approximately 100 µM. Further, the “mode of antagonism at heteromeric nAChRs” value in data set [6] was “non-competitive antagonists”. In addition, the IC50 in data set [6] (1 mM ACh, −60 mV, room temperature, read-out: IC50 for inhibition of α4β2 nAChR) is 290 ± 50 nM. The “interaction of mecamylamine and isoflurane applied together (isobolographic analysis)” value in [6] (inhibition of α4β2 nAChR activation) was “within the 95% confidence intervals for additivity”. Further, the “ED50 for inhibition of seizures induced by NMDA” value with seizures induced by NMDA is 12 ± 3.2 mg/kg.

For the compound `CN1[C@@H]2CC[C@H]1C[C@@H](OC(=O)C(CO)c1ccccc1)C2` (stereo partly drawn) [atropine], the “effect on hyperalgesic response to isoflurane” value in the data set with mice [2] (atropine 5 mg/kg) is recorded as “had no effect on the hyperalgesic response to isoflurane”. Besides, the “minimum concentration that caused baseline hyperalgesia” value in the data set with mice [2] (mouse, in vivo) is recorded as 5 mg/kg.

As to `Clc1ccc(C2CC3CCC2N3)cn1` (stereo not drawn) [Epibatidine], in [8], the “potency for analgesia relative to morphine” value was “approximately 200 times”.
